# From ChEMBL document CHEMBL4049403, “Oligo-aspartic acid conjugates with benzo[c][2,6]naphthyridine-8-carboxylic acid scaffold as picomolar inhibitors of CK2” (Bioorg Med Chem, 2017)
# Biological target: Albumin (Bos taurus, UniProt P02769)
# Test: Binding affinity to bovine serum albumin by fluorescence anisotropy based method
# Assay type: ADME
# Albumin, sequence (P02769 whole entry): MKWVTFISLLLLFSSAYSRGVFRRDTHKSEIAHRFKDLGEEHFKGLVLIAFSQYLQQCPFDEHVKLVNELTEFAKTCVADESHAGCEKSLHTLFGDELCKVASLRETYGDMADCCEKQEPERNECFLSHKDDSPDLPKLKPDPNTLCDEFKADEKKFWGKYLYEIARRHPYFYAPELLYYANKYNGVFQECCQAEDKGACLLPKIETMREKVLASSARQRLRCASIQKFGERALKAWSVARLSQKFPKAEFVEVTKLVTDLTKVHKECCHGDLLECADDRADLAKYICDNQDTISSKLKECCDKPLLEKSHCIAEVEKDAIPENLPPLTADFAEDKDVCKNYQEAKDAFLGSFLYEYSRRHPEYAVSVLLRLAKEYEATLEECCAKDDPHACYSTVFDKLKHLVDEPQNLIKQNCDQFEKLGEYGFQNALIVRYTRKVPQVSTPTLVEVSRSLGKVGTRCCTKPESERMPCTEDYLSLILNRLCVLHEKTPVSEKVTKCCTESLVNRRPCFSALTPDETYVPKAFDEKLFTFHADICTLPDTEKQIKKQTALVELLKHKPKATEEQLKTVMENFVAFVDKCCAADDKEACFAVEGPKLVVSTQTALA
row,Kd [µM],SMILES
1,> 50,CCN1c2cc(S(=O)(=O)O)ccc2\C(=C/C=C/C=C/C2=[N+](CC)c3ccc(S(=O)(=O)[O-])cc3C2(C)C)C1(C)CCCC(=O)NCCCC[C@H](NC(=O)CCCCCCCCOc1nc2cc(C(=O)O)ccc2c2cnccc12)C(=O)N[C@@H](CC(=O)O)C(=O)N[C@@H](CC(=O)O)C(=O)N[C@@H](CC(=O)O)C(=O)N[C@@H](CC(=O)O)C(=O)O (some centres not stated)
2,1.7,CCN1c2cc(S(=O)(=O)O)ccc2\C(=C/C=C/C=C/C2=[N+](CC)c3ccc(S(=O)(=O)[O-])cc3C2(C)C)C1(C)CCCC(=O)NCCCC[C@H](NC(=O)[C@H](CC(=O)O)NC(=O)[C@H](CC(=O)O)NC(=O)[C@H](CC(=O)O)NC(=O)[C@H](CC(=O)O)NC(=O)[C@H](CC(=O)O)NC(=O)[C@H](CC(=O)O)NC(=O)CCCCCCCn1cnc2c(Br)c(Br)c(Br)c(Br)c21)C(=O)O (some centres not stated)
